Experimental data taken from patent US20120093735A1, “COMPLEX COMPOUND AND MRI PROBE MADE OF SAME” (priority 2005, published 2012).

Key:
Format in all cases: physicochemical
[1] = Relaxivity R1 of KMR-K001 depending on abundance of ions; details: KCl vs CaCl2, MgCl2, FeCl3; 0.05M Tris/HCl pH 7.4, 0.47 T, 40° C.
Procedure: Solutions of KMR-K001 (1.0 mM) and KCl (0, 0.01, 0.1, 0.3, 0.6, 0.9, 1.2, 1.5, 1.8, 2.4, 3.0, 10, 30. 100 mM) in 0.05M Tris/HCl buffer, pH 7.4, were prepared in an amount of 2 mL, respectively. Each solution was measured for the longitudinal relaxation time T1 three times using NMS 120 Minispec NMR ANALYZER (0.47 T, 40° C., IR pulse). Then each solution was sequentially diluted to attain KMR-K001 concentrations of 0.9 mM and 0.8 mM, respectively, and the longitudinal relaxation time T1 was measured therefor. By taking [KMR-K001] along the abscissa and taking 1/T1 along the ordinate, relaxivity R1 was determined from the slope. Measurements of the longitudinal relaxation time were carried out in the same manner using CaCl2, MgCl2 or FeCl3.

[2] = Relaxivity R1 of KMR-K001 in the presence of zinc ion; details: 0.05M Tris/HCl pH 7.4, 0.47 T, 40° C.; gadolinium ion liberated by ligand exchange
[3] = T1-weighted images of KMR-Ca001 solutions (1.5T MR scanner); details: 0.05M Tris/HCl pH 7.4, 1.5T
Procedure: Water, solutions containing KMR-Ca001 alone at concentrations of 0.1, 0.3, 0.6, 1.0 and 3.0 mM, respectively, and solutions containing 0.3 mM KMR-Ca001 and CaCl2 at concentrations of 0.5, 0.6, 0.8, 1.0, 10.0, 20.0, 50.0, 80.0 mM, respectively, in 0.05M Tris/HCl buffer, pH 7.4, were prepared, and placed in glass tubes, respectively. These glass tubes were stood on agar contained in a Tupperware, and T1-weighted images were obtained by T1-weighted GRE using a 1.5T MR scanner (Signa Horzon LX, produced by GE Yokogawa Medical Systems).
As a result, as KMR-Ca001 increased, the T1-weighted images became whiter, so that it was confirmed that KMR-Ca001 functioned and effective as an MRI contrast agent. The T1-weighted images of the solutions containing 0.3 mM KMR-Ca001 to which calcium ion was added, as the calcium ion increases, coordination of water to gadolinium ion was more inhibited, so that T1-weighted image became darker. By this, it was confirmed that KMR-Ca001 is an MRI contrast agent which responds to calcium ion concentration.

[4] = Relaxivity R1 of KMR-Ca001 depending on abundance of ions; details: CaCl2 vs NaCl, MgCl2, FeCl3; 0.05M Tris/HCl pH 7.4, 0.47 T, 40° C.
Procedure: (§1) Solutions of KMR-Ca001 (0.6 mM) and CaCl2 (0, 0.01, 0.1, 0.2, 0.3, 0.4, 0.5, 0.6, 0.7, 0.8, 1.0, 1.2, 3.0, 10, 30, 100mM) in 0.05M Tris/HCl buffer, pH 7.4, were prepared in an amount of 2 mL, respectively. Each solution was measured for the longitudinal relaxation time T1 three times using NMS 120 Minispec NMR ANALYZER (0.47 T, 40° C., IR pulse). Then each solution was sequentially diluted to attain […] concentrations of 0.45 mM and 0.35 mM, respectively, and the longitudinal relaxation time T1 was measured therefor in the same manner. By taking [KMR-Ca001] along the abscissa and taking 1/T1 along the ordinate, relaxivity R1 was determined from the slope. Measurements of the longitudinal relaxation time were carried out in the same manner using NaCl, MgCl2 or FeCl3.

[5] = Relaxivity R1 of KMR-Ca001 in the presence of iron ion; details: 0.05M Tris/HCl pH 7.4, 0.47 T, 40° C.; iron ion per se has relaxing capability
Procedure: as §1

Substance	ion selectivity of relaxivity R1 response [1]	change of relaxivity in the presence of zinc ion [2]	T1-weighted image change with increasing calcium ion ([3]; 0.3 mM KMR-Ca001 with CaCl2 0.5-80.0 mM)	T1-weighted image change with increasing probe concentration ([3]; KMR-Ca001 alone 0.1-3.0 mM)	ion selectivity of relaxivity R1 response [4]	change of relaxivity in the presence of iron ion [5]
[bis-(2-{[(2-carboxy-(benzo-15-crown-5)-ethylcarbamoyl)-methyl]-carboxymethyl-amino}-ethyl)-amino]-acetic acid gadolinium complex [KMR-K001]	selectively responds to potassium ion	the relaxivity is sharply increased	–	–	–	–
{bis-[2-({[3-(bis-carboxymethyl-amino)-4-methoxy-phenylcarbamoyl]-methyl}-carboxymethyl-amino)-ethyl]-amino}-acetic acid gadolinium complex [KMR-Ca001]	–	–	became darker	became whiter	selectively responds to calcium ion	the relaxivity is sharply increased
